Laboratory results as given in paper PMC7605213 (Journal of medicinal chemistry, 2020).
Values joined by “and” are separate entries in the source; they are usually repeats but may differ in a detail not shown here. Identical values can stand only once. “Also recorded” adds a separate entry of the source. Marks after values point to notes of the source that are not given here.

Tests used:
[1] = system: CQ-resistant Pf Dd2 strain; assay: In vitro antiplasmodial activity, SYBR green I fluorescence, Dd2 strain; format: cell-based, Plasmodium falciparum; settings: for activity against the Dd2 strain: aminoquinolines without the arylvinyl group; for resistance index (RI): RI = Dd2 EC50/3D7 EC50; for EC50: read-out: EC50 against the Dd2 strain, CQ-resistant Pf Dd2, 72 h incubation
[2] = system: P. berghei ANKA strain expressing luciferase; assay: In vivo antimalarial activity: elimination of existing infection; set-up: species or system Swiss-Webster female mice; settings: 25 mg/kg daily p.o., monophosphate salts, treatment from 48 h post infection
P. berghei ANKA 676m1cl1 = assay: Assessment of the curative property; format: in vivo, BALB/c female mice
[3] = system: β-hematin crystal formation; assay: β-Hematin formation inhibition; format: biochemical; settings: 100 μM hemin, 16 h, 37 °C, highest concentration tested 200 μM
malaria infection = settings: cited from earlier work
[4] = system: synchronized P. falciparum Dd2 cultures; assay: Stage-specific action; format: cell-based, Plasmodium falciparum; settings: for stage-specific action on cell cycle progression: 5 × EC50 (DHA 50 nM, atovaquone 6.6 nM) added at 6, 18, 30, 42 HPI
[5] = mouse liver microsomes; values reported from the initial study ref 33; cited from earlier work
[6] = mouse liver microsomes, 15, 30 and 60 min, tentative assignment
HepG2 cells = assay: In vitro cytotoxicity assay; format: cell-based, human; settings: for selectivity index (SI): SI = HepG2 EC50/Dd2 EC50
[7] = system: P. falciparum Dd2 cultures; assay: Transmission electron microscopy of treated parasites; format: cell-based, Plasmodium falciparum; settings: 5 × EC50 for 1.5, 3, 6 or 12 h
CQ-sensitive 3D7 strain = assay: In vitro antiplasmodial activity, SYBR green I fluorescence, 3D7 strain; format: cell-based, Plasmodium falciparum

## COc1ccc2nc(C)cc(NCCN(C)C)c2c1 [6a, N^1-(6-Methoxy-2-methylquinolin-4-yl)-N^2,N^2-dimethylethane-1,2-diamine]
[1]
  activity against the Dd2 strain: inactive

## Cc1cc(NCCN(C)C)c2cc(Cl)ccc2n1 [6c, N^1-(6-Chloro-2-methylquinolin-4-yl)-N^2,N^2-dimethylethane-1,2-diamine]
[1]
  activity against the Dd2 strain: inactive

## Cc1cc(NCCCCN(C)C)c2cc(Cl)ccc2n1 [6e, N^1-(6-Chloro-2-methylquinolin-4-yl)-N^4,N^4-dimethylbutane-1,4-diamine]
[1]
  activity against the Dd2 strain: inactive

## CN(C)CCNc1cc(/C=C/c2ccc(C(F)(F)F)cc2)nc2ccc(Cl)cc12.O=P(O)(O)O [24s, (E)-N^1-(6-Chloro-2-(4-(trifluoromethyl)styryl)quinolin-4-yl)-N^2,N^2-dimethylethane-1,2-diamine Monophosphate Salt]
[2]
  effect on malaria infection (bioluminescence day 7): full protection and cure
P. berghei ANKA 676m1cl1; 100 mg/kg p.o. once daily for 4 days
  mice cured (no parasites in blood smears / 100% reduction of parasitemia): no parasites were detected and 5/5
P. berghei ANKA 676m1cl1; 25 and 100 mg/kg p.o.
  body weight change: no significant weight loss
  tolerability / signs of toxicity: well tolerated; also recorded: no apparent signs of toxicity

## CN(C)CCNc1cc(/C=C/c2ccc(F)cc2)nc2ccc(Cl)cc12.O=P(O)(O)O [29s, (E)-N^1-(6-Chloro-2-(4-fluorostyryl)quinolin-4-yl)-N^2,N^2-dimethylethane-1,2-diamine Monophosphate Salt]
[2]
  effect on malaria infection (bioluminescence day 7): effectively cleared the parasites

## CN1CCN(CCNc2cc(/C=C/c3ccc(F)cc3)nc3ccc(Cl)cc23)CC1.O=P(O)(O)O [86s, (E)-6-Chloro-2-(4-fluorostyryl)-N-(2-(4-methylpiperazin-1-yl)-ethyl)quinolin-4-amine Monophosphate Salt]
[2]
  effect on malaria infection (bioluminescence day 7): ineffective

## CCN(CC)CCCC(C)Nc1ccnc2cc(Cl)ccc12 (stereo not drawn) [CQ, chloroquine, reference compound]
[3]
  inhibition of β-hematin formation: strongly inhibited β-hematin formation
Malaria infection; 30 mg/kg ref 61
  mean survival time (MSD): 24 days

## C[C@H]1[C@@H](O)O[C@@H]2O[C@@]3(C)CC[C@H]4[C@H](C)CC[C@@H]1[C@@]24OO3 [DHA, dihydroartemisinin, reference compound]
[4]
  stage-specific action on cell cycle progression: inhibition of all stages

## CCN(CC)CCCC(C)Nc1cc(/C=C/c2ccc([N+](=O)[O-])cc2)nc2ccc(OC)cc12 (stereo not drawn) [UCF501]
[5]
  % remaining after 60 min: 47.8^a %
Malaria infection; 100 mg/kg twice daily p.o. ref 33
  mice cured of malaria infection: 4/5
[6]
  metabolites / metabolic pathway identified by LC–MS: N-deethylation of the tertiary amine (monodeethyl UCF501 and UCF501-M1), O-demethylation (UCF501-M2), oxidation of styrylquinoline (UCF501-M3), and the reduction of the nitro group

## O=C1C(O)=C([C@H]2CC[C@H](c3ccc(Cl)cc3)CC2)C(=O)c2ccccc21 [atovaquone, reference compound]
[4]
  stage-specific action on cell cycle progression: no inhibition in late stages

## COc1ccc2nc(/C=C/c3ccccc3)cc(NCCN(C)C)c2c1 [compound 8, (E)-N^1-(6-Methoxy-2-styrylquinolin-4-yl)-N^2,N^2-dimethylethane-1,2-diaminei]
[1]
  resistance index (RI): ≥ 1.5

## COc1ccc2nc(/C=C/c3ccc(OC)c(OC)c3)cc(NCCN(C)C)c2c1 [compound 13, (E)-N^1-(2-(3,4-Dimethoxystyryl)-6-methoxyquinolin-4-yl)-N^2,N^2-dimethylethane-1,2-diamine]
[1]
  resistance index (RI): ≥ 1.5

## COc1ccc2nc(/C=C/c3cc(OC)c(OC)c(OC)c3)cc(NCCN(C)C)c2c1 [compound 14, (E)-N^1-(6-Methoxy-2-(3,4,5-trimethoxystyryl)quinolin-4-yl)-N^2,N^2-dimethylethane-1,2-diamine]
[1]
  resistance index (RI): ≥ 1.5

## COc1ccc(/C=C/c2cc(NCCN(C)C)c3cc(F)ccc3n2)cc1OC [compound 20, (E)-N^1-(2-(3,4-Dimethoxystyryl)-6-fluoroquinolin-4-yl)-N^2,N^2-dimethylethane-1,2-diamine]
[1]; Dd2
  fold improved activity compared to compound 13: approximately 4.5 fold

## CN(C)CCNc1cc(/C=C/c2ccc(C(F)(F)F)cc2)nc2ccc(Cl)cc12 [compound 24, (E)-N^1-(6-Chloro-2-(4-(trifluoromethyl)styryl)quinolin-4-yl)-N^2,N^2-dimethylethane-1,2-diamine]
HepG2 cells
  selectivity index (SI): > 1000
[3]
  inhibition of β-hematin formation: very low activity against β-hematin crystal formation; also recorded: weaker inhibitory activity toward β-hematin formation as compared with CQ
[4]
  stage-specific action on cell cycle progression: blocked when the compound was added at 6, 18, and 30 HPI
[4]; 5 × EC50, added at 42 HPI
  effect on cell cycle when added at 42 HPI: did not affect the schizont maturation or the reinvasion of new merozoites
[7]
  ultrastructural effect (TEM): appearance of membrane-bound structures within the parasite DV
[6]
  metabolites / metabolic pathway identified by LC–MS: N-demethylation was the primary metabolic route

## CN(C)CCNc1cc(/C=C/c2ccc(N(C)C)cc2)nc2ccc(Cl)cc12 [compound 28, (E)-N^1-(6-Chloro-2-(4-(dimethylamino)styryl)quinolin-4-yl)-N^2,N^2-dimethylethane-1,2-diamine]
[1]
  resistance index (RI): 1.3

## CN(C)CCNc1cc(/C=C/c2ccc(F)cc2)nc2ccc(Cl)cc12 [compound 29, (E)-N^1-(6-Chloro-2-(4-fluorostyryl)quinolin-4-yl)-N^2,N^2-dimethylethane-1,2-diamine]
HepG2 cells
  selectivity index (SI): > 1000
[3]
  inhibition of β-hematin formation: showed inhibitory activity toward β-hematin formation in a concentration-dependent manner
[4]
  stage-specific action on cell cycle progression: stage-specific action at the late trophozoite phase
[6]
  metabolites / metabolic pathway identified by LC–MS: monodemethylated (29-M1), bi-demethylated (29-M2), and oxidized products (29-M3)

## COc1ccc2nc(/C=C/c3ccncc3)cc(NCCN(C)C)c2c1 [compound 41, (E)-N^1-(6-Methoxy-2-(2-(pyridin-4-yl)vinyl)quinolin-4-yl)-N^2,N^2-dimethylethane-1,2-diamine]
[1]; Dd2
  fold activity difference versus 2-pyridyl isomer 42: up to 30 fold

## CN(C)CCNc1cc(/C=C/c2ccncc2)nc2ccc(Cl)cc12 [compound 50, (E)-N^1-(6-Chloro-2-(2-(pyridin-4-yl)vinyl)quinolin-4-yl)-N^2,N^2-dimethylethane-1,2-diamine]
[1]
  resistance index (RI): < 1

## CN1CCN(CCNc2cc(/C=C/c3ccc(F)cc3)nc3ccc(Cl)cc23)CC1 [compound 86, (E)-6-Chloro-2-(4-fluorostyryl)-N-(2-(4-methylpiperazin-1-yl)-ethyl)quinolin-4-amine]
[1]; Dd2
  fold more potent than analogue 95: ~2.5 fold
[3]
  inhibition of β-hematin formation: showed inhibitory activity toward β-hematin formation in a concentration-dependent manner
[4]
  stage-specific action on cell cycle progression: stage-specific action at the late trophozoite phase
[6]
  metabolites / metabolic pathway identified by LC–MS: Demethylated (86-M1) and oxidized products (86-M2)

## Fc1ccc(/C=C/c2cc(NCCCCN3CCOCC3)c3cc(Cl)ccc3n2)cc1 [compound 92, (E)-6-Chloro-2-(4-fluorostyryl)-N-(4-morpholinobutyl)quinolin-4-amine]
[1]; Dd2
  fold improved potency compared with counterpart 81: ~2 fold
CQ-sensitive 3D7 strain
  fold increase in inhibitory activity relative to compound 81: ~6 fold
HepG2 cells; HepG2
  fold increase in cytotoxicity relative to compound 81: 4.8 fold
HepG2 cells
  selectivity index (SI): > 1000
[6]
  metabolites / metabolic pathway identified by LC–MS: breakage of the morpholine ring

## Clc1ccc2nc(/C=C/c3ccncc3)cc(NCCCCN3CCOCC3)c2c1 [compound 93, (E)-6-Chloro-N-(4-morpholinobutyl)-2-(2-(pyridin-4-yl)vinyl)-quinolin-4-amine]
[1]; Dd2
  fold improved potency compared with counterpart 82: ~13 fold
[1]
  EC50: ≤ 15 nM
[6]
  metabolites / metabolic pathway identified by LC–MS: breakage of the morpholine ring

## FC(F)(F)c1ccc(/C=C/c2cc(NCCCCN3CCOCC3)c3cc(Cl)ccc3n2)cc1 [compound 98, (E)-6-Chloro-N-(4-morpholinobutyl)-2-(4-(trifluoromethyl)-Styryl)quinolin-4-amine]
[6]
  metabolites / metabolic pathway identified by LC–MS: breakage of the morpholine ring

## Fc1ccc(/C=C/c2cc(NCCCCN3CCOCC3)c3cc(Cl)ccc3n2)c(F)c1 [compound 104, (E)-6-Chloro-2-(2,4-difluorostyryl)-N-(4-morpholinobutyl)-quinolin-4-amine]
[1]; Dd2
  fold more active than 103: ~2.5 fold

## Fc1ccc(/C=C/c2cc(NCCCCN3CCOCC3)c3cc(Cl)ccc3n2)cc1F [compound 105, (E)-6-Chloro-2-(3,4-difluorostyryl)-N-(4-morpholinobutyl)-quinolin-4-amine]
[1]; Dd2
  fold more active than 103: ~7 fold
[6]
  metabolites / metabolic pathway identified by LC–MS: breakage of the morpholine ring

## Fc1cnccc1/C=C/c1cc(NCCCCN2CCOCC2)c2cc(Cl)ccc2n1 [compound 109, (E)-6-Chloro-2-(2-(3-fluoropyridin-4-yl)vinyl)-N-(4-morpholinobutyl)quinolin-4-amine]
[1]; Dd2
  fold less active than counterpart 93: ~7.5 fold

## (E)-4-(6-Chloro-2-(4-isocyanostyryl)quinolin-4-yl)morpholine [compound 64]
[1]
  EC50: > 1000 nM
